Experimental data as given in patent US20230141783A1, “DIFFERENT FORMS OF 6-CHLORO-2-ETHYL-N-(4-(4-(4-(TRIFLUOROMETHOXY)PHENYL)PIPERIDINE-1-YL)BENZYL)IMIDAZO[1,2-A]PYRIDINE-3-CARBOXAMIDE” (priority 2019, published 2023).
Converted amounts (≈) assume the structure as drawn. “Also recorded” adds a separate entry of the source. Where two headings read alike, the source gives them in different places.

Experiments:
DVS water absorption = type: physicochemical; conditions: 90% RH at RT; ditosylate
From the text: (FIGS. 4-5). It is the predominant form obtained in slurry experiments. Conversion from Form A to other XRPD patterns was mainly obtained from methanol (to Form C) or water (to pattern B) in the slurry medium. However, as it will be shown in further sections, Form C is converted to Form A upon re-slurry in the majority of other solvents (than methanol).
FIGS. 9 to 11 show XRPD, DSC, and TGA of a solid with Form C. […] The XRPD peaks of pattern C are sharper than those of Form A. Form C is the predominant form when methanol is used as the slurry medium. However, Form “C” is not a methanol solvate form of the di-tosylate salt. Many reactive crystallization experiments using different solvents generated Form C immediately after salt formation.

[1] = Exposing Forms A and C in 100% RH at RT (XRPD/DSC); type: physicochemical; conditions: 100% RH at RT for 6 days, ditosylate
From the text: Forms A and C were exposed in 100% RH environment at RT for 6 days; the solids were subsequently analyzed using DSC and XRPD.
In FIGS. 1 and 17, the XRPD of sample of Form A (previous obtained form EA and IPA/MEK) before and after 6 days exposure to 100% RH are sketched. FIGS. 19 and 20 show the DSC scan of the same samples after exposure. […] FIGS. 18 and 21 show the result of the same treatment for Form C.

[2] = Forms A and C re-slurry in pure solvents at RT (aging experiments, XRPD); type: physicochemical; conditions: re-slurry of Forms A and C at RT; except in methanol
Description: These experiments were performed to investigate potential transformation between Form A and C. The procedure of the experiments is shown below. • 15 mg Form A and 15 mg Form C were add into a 1.5 ml vial with magnetic stirrer. • 20 vol (600 ul) of various solvents was added into the vial • The suspensions were stir at RT for 5 days • Then filter and the solid was sent for XRPD (before and after drying in oven) and DSC

[3] = Long-term stability at 25° C./60% RH (HPLC); type: physicochemical; conditions: for Purity [%] (as measured by HPLC): 25° C./60% RH
[4] = Stability under accelerated conditions 40° C./75% RH (HPLC); type: physicochemical; conditions: 40° C./75% RH, 6 months
physchem [5] = conditions: thermodynamic from solid
Description: Approximate solubility of the starting di-tosylate salt (Form A) was measured by gravimetry method. 100 mg of the solid was suspended in 10 vol of various solvents and stirred at RT and 50° C. for 3 days. The mother liquid was then used to measure the solubility.

[6] = Approximate solubility of the free base by gravimetry method; type: physicochemical; conditions: organic solvent or mixture, thermodynamic from solid
Description: The objective of measuring solubility of free base was to identify potential solvents for salt formation process development. Approximate solubility of the free base was measured by gravimetry method. Excess solids were added to various solvents including some Class III solvents (ICH guideline) at RT and 50° C. Since the solubility in these solvents is generally low, it was decided to mix water with these solvents. The suspensions were slurried for one day; the clear liquors from the top portion of the suspension were used for solubility determination by gravimetry method.

[7] = pKa analysis (UV-metric titration); type: physicochemical; conditions: methanol-water co-solvent, aqueous values by Yasuda-Shedlovsky extrapolation, 25.0-25.1 °C, 0.15 M KCl
Description: The sample pKas were determined using the spectrometric (UV-metric) technique. The sample was titrated in a UV-metric triple titration from pH 2.0-12.0 at concentrations of 31 -23 µM, under methanol-water co-solvent conditions (the methanol mixing ratio varied from 63.9 to 46.7% w/w).
It should be noted that an additional potentiometric assay was carried out which confirmed the pKas and that there were no further pKas associated with the sample within the measurable pH range (2.0-12.0).

cytochrome bc1 = cytochrome bc1 (Mycobacterium tuberculosis, UniProt P9WP37); conditions: Pethe et al., Nature Medicine, 19, 1157-1160 (2013); inhibiting cytochrome bc1 activity; cited from earlier work
[8] = Solubility estimation by aliquot addition and Clarity temperature cycling; conditions: for solubility: 20 °C, organic solvent or mixture, thermodynamic from solid
[9] = mono-tosylate
physchem [10] = conditions: pH 1, simulated gastric fluid, thermodynamic from solid

cytochrome bc1, sequence (P9WP37 whole entry, looked up): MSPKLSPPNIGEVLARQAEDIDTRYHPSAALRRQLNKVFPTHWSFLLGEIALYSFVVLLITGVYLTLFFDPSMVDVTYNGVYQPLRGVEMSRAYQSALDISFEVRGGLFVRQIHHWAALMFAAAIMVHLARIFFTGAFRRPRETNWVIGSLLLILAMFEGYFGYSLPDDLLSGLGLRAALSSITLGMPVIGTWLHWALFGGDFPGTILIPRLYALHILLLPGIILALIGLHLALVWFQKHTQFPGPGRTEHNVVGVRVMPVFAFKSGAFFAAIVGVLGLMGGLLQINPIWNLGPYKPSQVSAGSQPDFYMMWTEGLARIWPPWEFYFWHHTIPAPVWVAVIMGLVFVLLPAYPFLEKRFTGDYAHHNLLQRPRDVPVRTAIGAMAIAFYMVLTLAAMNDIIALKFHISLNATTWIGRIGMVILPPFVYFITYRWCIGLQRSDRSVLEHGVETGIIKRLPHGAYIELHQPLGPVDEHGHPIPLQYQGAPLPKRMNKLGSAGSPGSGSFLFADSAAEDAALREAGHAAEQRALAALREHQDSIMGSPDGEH

CCc1nc2ccc(Cl)cn2c1C(=O)NCc1ccc(N2CCC(c3ccc(OC(F)(F)F)cc3)CC2)cc1.Cc1ccc(S(=O)(=O)O)cc1.Cc1ccc(S(=O)(=O)O)cc1 [Form A, 6-chloro-2-ethyl-N-(4-(4-(4-(trifluoromethoxy)phenyl)piperidine-1-yl)benzyl)imidazo[1,2-a]pyridine-3-carboxamide ditosylate]
water absorption (DVS) (DVS water absorption): around 0.35%
crystalline form after exposure to 100% RH [1]: maintains its crystalline form; also recorded: no change to crystalline
relative polymorph stability [2]: more stable than Form C
long-term storage stability ([3]; 25° C. and 60% RH for up to 60 months, listed as Q203-ditosylate form A, ditosylate): remains stable
Purity [%] (as measured by HPLC) ([3]; 0 months): >98%
Purity [%] (as measured by HPLC) ([3]; 6 months): >98%
Purity [%] (as measured by HPLC) ([3]; 12 months): >98%
Purity [%] (as measured by HPLC) ([3]; 24 months): >98%
Purity [%] (as measured by HPLC) ([3]; 36 months): >98%
Purity [%] (as measured by HPLC) ([3]; 48 months): >98%
Purity [%] (as measured by HPLC) ([3]; 60 months): >98%
purity (HPLC) [4]: > 98%
Approximate solubility (Acetone, 50° C.): nil
Approximate solubility (Acetone, RT): nil
Approximate solubility (Acetonitrile, 50° C.): nil
Approximate solubility (Acetonitrile, RT): nil
Approximate solubility (Dichloromethane (DCM), 50° C.): nil
Approximate solubility (Dichloromethane (DCM), RT): nil
Approximate solubility (EA, 50° C.): nil
Approximate solubility (EA, RT): nil
Approximate solubility (IPA, RT): nil
Approximate solubility (IPAC, 50° C.): nil
Approximate solubility (IPAC, RT): nil
Approximate solubility (MA, 50° C.): nil
Approximate solubility (MA, RT): nil
Approximate solubility (Methul Isobutyl Ketone (MIBK), RT): nil
Approximate solubility (Methyl Ethyl Ketone (MEK), 50° C.): nil
Approximate solubility (Methyl Ethyl Ketone (MEK), RT): nil
Approximate solubility (Methyl tert-Butyl Ether (TBME), 50° C.): nil
Approximate solubility (Methyl tert-Butyl Ether (TBME), RT): nil
Approximate solubility (THF, 50° C.): nil
Approximate solubility (THF, RT): nil
Approximate solubility (Water, RT): nil
solubility at 3 days (physchem [5]; IPA, 50 °C, organic solvent or mixture): 3 mg/mL
solubility at 3 days (physchem [5]; ethanol (EtOH), 50 °C, organic solvent or mixture): 7 mg/mL
solubility at 3 days (physchem [5]; ethanol (EtOH), organic solvent or mixture): 1 mg/mL
solubility at 3 days (physchem [5]; methanol (MeOH), 50 °C, organic solvent or mixture): 275 mg/mL
solubility at 3 days (physchem [5]; methanol (MeOH), organic solvent or mixture): 126 mg/mL
solubility at 3 days (physchem [5]; methyl isobutyl ketone (MIBK), 50 °C, organic solvent or mixture): 2 mg/mL
solubility at 3 days (physchem [5]; toluene, 50 °C, organic solvent or mixture): 3 mg/mL
solubility at 3 days (physchem [5]; toluene, organic solvent or mixture): 1 mg/mL
solubility at 3 days (physchem [5]; water, 50 °C): 3 mg/mL

CCc1nc2ccc(Cl)cn2c1C(=O)NCc1ccc(N2CCC(c3ccc(OC(F)(F)F)cc3)CC2)cc1 [Q203 free base, 6-chloro-2-ethyl-N-(4-(4-(4-(trifluoromethoxy)phenyl)piperidine-1-yl)benzyl)imidazo[1,2-a]pyridine-3-carboxamide]
solubility at 1 day ([6]; Acetone+5%water, 50° C.): 74 mg/mL (≈ 133 mM)
solubility at 1 day ([6]; Acetone+5%water, RT): 22 mg/mL (≈ 39.5 mM)
solubility at 1 day ([6]; Acetone+10%water, 50° C.): 42 mg/mL (≈ 75.4 mM)
solubility at 1 day ([6]; Acetone, 50° C.): 48 mg/mL (≈ 86.2 mM)
solubility at 1 day ([6]; EA and its mixture with water, 50° C.): 55 to 98 mg/mL (≈ 98.7 to 176 mM)
solubility at 1 day ([6]; EA+4%water, 50° C.): 55 mg/mL (≈ 98.7 mM)
solubility at 1 day ([6]; EA+4%water, RT): 16 mg/mL (≈ 28.7 mM)
solubility at 1 day ([6]; Ethyl Acetate (EA), 50° C.): 99 mg/mL (≈ 178 mM)
solubility at 1 day ([6]; Ethyl Acetate (EA), RT): 13 mg/mL (≈ 23.3 mM)
solubility at 1 day ([6]; IPA or its mixture with water, 50° C.): 11 to 22 mg/mL (≈ 19.7 to 39.5 mM)
solubility at 1 day ([6]; IPA+5%water, 50° C.): 22 mg/mL (≈ 39.5 mM)
solubility at 1 day ([6]; IPA+15%water, 50° C.): 11 mg/mL (≈ 19.7 mM)
solubility at 1 day ([6]; IPAC+4%water, 50° C.): 35 mg/mL (≈ 62.8 mM)
solubility at 1 day ([6]; Isopropyl Acetate (IPAC), 50° C.): 51 mg/mL (≈ 91.6 mM)
solubility at 1 day ([6]; Isopropyl Acetate (IPAC), RT): 26 mg/mL (≈ 46.7 mM)
solubility at 1 day ([6]; Isopropyl Alcohol (IPA), 50° C.): 20 mg/mL (≈ 35.9 mM)
solubility at 1 day ([6]; MA+4%water, 50° C.): 105 mg/mL (≈ 189 mM)
solubility at 1 day ([6]; MA+4%water, RT): 18 mg/mL (≈ 32.3 mM)
solubility at 1 day ([6]; Methyl Amine (MA), 50° C.): 94 mg/mL (≈ 169 mM)
solubility at 1 day ([6]; Methyl Amine (MA), RT): 38 mg/mL (≈ 68.2 mM)
solubility at 1 day ([6]; Tetrahydrofuran (THF), 50° C.): 279 mg/mL (≈ 501 mM)
solubility at 1 day ([6]; Tetrahydrofuran (THF), RT): 133 mg/mL (≈ 239 mM)
solubility at 1 day ([6]; acetone and its mixture with water, 50° C.): 41 to 74 mg/mL (≈ 73.6 to 133 mM)
solubility at 1 day ([6]; methyl acetate, 50° C.): 94 to 105 mg/mL (≈ 169 to 189 mM)
pKa [7]: 3.7 ± 0.06
activity against tuberculosis (cytochrome bc1): active against tuberculosis
Tcryst ([8]; IPA): 37.0-39.3 °C
Tdisso ([8]; IPA): 52.5-55.7 °C
solubility ([8]; IPA): < 25.3 mg/mL
Tcryst ([8]; MEK): not observed
Tdisso ([8]; MEK): ambient
solubility ([8]; MEK): 50 to 56 mg/mL (≈ 89.8 to 101 mM)
Tcryst ([8]; acetone): *not observed
solubility ([8]; acetone): < 25.4 mg/mL
Tdisso ([8]; acetone, partial solubility when heated, solid remained after two Clarity heat/cool cycles): *35 °C
Tcryst ([8]; acetonitrile): 47.4-47.9 °C
Tdisso ([8]; acetonitrile): 58.2-58.9 °C
solubility ([8]; acetonitrile): < 25 mg/mL
Tcryst ([8]; dichloromethane): not observed
Tdisso ([8]; dichloromethane): ambient
solubility ([8]; dichloromethane): 169 to 253 mg/mL (≈ 303 to 454 mM)
Tcryst ([8]; dimethyl sulfoxide): 32.8-39.3 °C
Tdisso ([8]; dimethyl sulfoxide): 53.6-54.7 °C
solubility ([8]; dimethyl sulfoxide): < 25.5 mg/mL
Tcryst ([8]; ethyl acetate): not observed
Tdisso ([8]; ethyl acetate): ambient
solubility ([8]; ethyl acetate): 34 to 36 mg/mL (≈ 61 to 64.6 mM)
Tcryst ([8]; methanol): 25.3-26.6 °C
Tdisso ([8]; methanol): 45.6-47.1 °C
solubility ([8]; methanol): < 25 mg/mL
Tcryst ([8]; methyl tert-butyl ether): not observed
Tdisso ([8]; methyl tert-butyl ether): not observed
solubility ([8]; methyl tert-butyl ether): < 25.6 mg/mL
Tcryst ([8]; tetrahydrofuran): not observed
Tdisso ([8]; tetrahydrofuran): ambient
solubility ([8]; tetrahydrofuran): 128 to 255 mg/mL (≈ 230 to 458 mM)

CCc1nc2ccc(Cl)cn2c1C(=O)NCc1ccc(N2CCC(c3ccc(OC(F)(F)F)cc3)CC2)cc1.Cc1ccc(S(=O)(=O)O)cc1 [pTSA salt, 6-chloro-2-ethyl-N-(4-(4-(4-(trifluoromethoxy)phenyl)piperidine-1-yl)benzyl)imidazo[1,2-a]pyridine-3-carboxamide mono-tosylate]
solid form after slurrying in buffer (XRPD) ([9]; pH 1 buffer, listed as pTSA): remained the same pattern
solid form after slurrying in buffer (XRPD) ([9]; pH 1 buffer): remained stable
solid form after slurrying in buffer (XRPD) ([9]; pH 4.5 and above): converted to freebase (type 28)
solubility (physchem [10]): ~0.33 mg/mL
